What was measured:
[1] = Inventors' unspecified tests and research on single ingredients of the supplement; format: in vivo
Description: Caffeine is far and away the most widely known compound in the composition, however, the present invention uses the caffeine as a clean source of energy to go along with methylliberine and theacrine.

[2] = Inventors' dose testing of theacrine (50-400 mg); format: in vivo; details: according to research and trials; unlike caffeine
Description: Theacrine advances the beneficial effects of the compounds of this invention in unexpected ways. […] Throughout the studies pertaining to this invention, it has been discovered that low blood pressure is paramount for the proper firing of synapses and proper chemical balance in the brain. Testing in doses from 50-400 mg of theacrine have narrowed the optimum range to 125-150 mg, and more particularly about 140 mg. […] This is made possible by the waste removal from phosphatidylserine and enhanced by alpha-glycerylphosphorylcholine which spreads these effects beyond the brain, throughout the entire body.

## Cn1c(=O)c2c(ncn2C)n(C)c1=O [Caffeine, reference compound]
[1]; 70 mg of caffeine
  cognitive effects: tremendous cognitive effects

## COc1nc2c(c(=O)n1C)n(C)c(=O)n2C [Methylliberine]
[1]; at precisely 140 mg, with caffeine and theacrine
  energy boost in combination with the other ingredients: unexpected energy boost

## Cn1c(=O)c2c(n(C)c1=O)n(C)c(=O)n2C [Theacrine]
[2]
  effect on blood pressure: does not seem to significantly affect blood pressure

## C[N+](C)(C)CCOP(=O)([O-])OC[C@H](O)CO [alpha-glycerylphosphorylcholine, Alpha-glycerylphosphorylcholine]
[1]; many tests and much research
  effect on muscular output and reaction times: increase muscular output and reaction times

## Phosphatidylserine
[1]; in vivo
  effectiveness as supplementary ingredient (membrane functions, nutrient entry, cortisol modulation, waste exit): unexpectedly effective

Source: patent US20250073189A1, “NATURAL DIETARY SUPPLEMENT FOR MENTAL HEALTH” (Mind Pop LLC, priority 2023, published 2025)
